Reference: PubChem BioAssay AID330 (DTP/NCI, 2004)
Where “and” joins values, the source holds several entries; their conditions need not be identical. Identical values can stand only once. Toxic doses and inconclusive results are not listed. How the source made its calls: active means survival T/C of 150% or more; inactive means T/C below 125% in these data.

Tested on: P388 leukemia ip, CD2F1 mice, survival T/C
Experiment: NCI In Vivo Anticancer Drug Screen. Data for tumor model P388 Leukemia (intraperitoneal) in CD2F1 (CDF1) mice
Settings: endpoint: median survival time, higher = longer survival
Method in brief: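 Mice carrying the transplanted tumor received test compound or vehicle. Survival was recorded in each group, and the value is the treated-group measurement divided by that of the vehicle-treated control group.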

[1] = dose: 25.0 mg/kg/injection, schedule: Q01DX009 (ip), vehicle: Klucel (hydroxypropylcellulose) (HPC)
[2] = dose: 50.0 mg/kg/injection, schedule: Q01DX009 (ip), vehicle: Klucel (hydroxypropylcellulose) (HPC)
[3] = dose: 100.0 mg/kg/injection, schedule: Q01DX009 (ip), vehicle: Klucel (hydroxypropylcellulose) (HPC)
[4] = dose: 50.0 mg/kg/injection, schedule: Q01DX005 (ip), vehicle: saline with Tween-80
[5] = dose: 100.0 mg/kg/injection, schedule: Q01DX005 (ip), vehicle: saline with Tween-80
[6] = dose: 200.0 mg/kg/injection, schedule: Q01DX005 (ip), vehicle: saline with Tween-80
[7] = dose: 12.5 mg/kg/injection, schedule: Q01DX005 (ip), vehicle: Klucel (hydroxypropylcellulose) (HPC)
[8] = dose: 50.0 mg/kg/injection, schedule: Q01DX005 (ip), vehicle: Klucel (hydroxypropylcellulose) (HPC)
[9] = dose: 100.0 mg/kg/injection, schedule: Q01DX005 (ip), vehicle: Klucel (hydroxypropylcellulose) (HPC)
[10] = dose: 200.0 mg/kg/injection, schedule: Q01DX005 (ip), vehicle: Klucel (hydroxypropylcellulose) (HPC)

Measured: T/C

CC(=O)OC1CCC2(C)C(=CCC3C2CCC2(C)C(OC(C)=O)/C(=C/C(=O)O)CC32)C1 (stereo unspecified)
inactive: [1] 94 % of control | [2] 97 % of control | [3] 97 % of control | dose: 200.0 mg/kg/injection, schedule: Q01DX009 (ip), vehicle: Klucel (hydroxypropylcellulose) (HPC) 90 % of control

CC1(C)CC2C3=CCC4C5(C)CCC(O)C(C)(C)C5CCC4(C)C3(C)CCC2(CO)C(O)C1O (stereo unspecified)
inactive: dose: 3.25 mg/kg/injection, schedule: Q01DX005 (ip), vehicle: Klucel (hydroxypropylcellulose) (HPC) 99 % of control | dose: 6.5 mg/kg/injection, schedule: Q01DX005 (ip), vehicle: Klucel (hydroxypropylcellulose) (HPC) 99 % of control | dose: 13.0 mg/kg/injection, schedule: Q01DX005 (ip), vehicle: Klucel (hydroxypropylcellulose) (HPC) 99 % of control | dose: 26.0 mg/kg/injection, schedule: Q01DX005 (ip), vehicle: Klucel (hydroxypropylcellulose) (HPC) 98 % of control

CC(C)(C)C1CCN(Cc2ccccc2)CC1
inactive: dose: 25.0 mg/kg/injection, schedule: Q01DX005 (ip), vehicle: saline with Tween-80 103 % of control | [4] 103 % of control | [5] 100 % of control

OC1CCC2SC1CCC2O (stereo unspecified)
inactive: dose: 50.0 mg/kg/injection, schedule: Q01DX009 (ip), vehicle: water 95 % of control | dose: 100.0 mg/kg/injection, schedule: Q01DX009 (ip), vehicle: water 102 % of control | dose: 200.0 mg/kg/injection, schedule: Q01DX009 (ip), vehicle: water 108 % of control | dose: 400.0 mg/kg/injection, schedule: Q01DX009 (ip), vehicle: water 100 % of control

Cc1nn(N)c2[nH]c(Cl)cc(=O)c12
inactive: [4] 97 % of control | [5] 109 % of control | [6] 116 % of control

O=[N+]([O-])c1ccc(-c2nnn(C3CC3)c2N2CCCCC2)cc1
inactive: dose: 100.0 mg/kg/injection, schedule: Q04DX002 (ip), vehicle: Klucel (hydroxypropylcellulose) (HPC) 100 % of control | dose: 200.0 mg/kg/injection, schedule: Q04DX002 (ip), vehicle: Klucel (hydroxypropylcellulose) (HPC) 96 % of control | dose: 400.0 mg/kg/injection, schedule: Q04DX002 (ip), vehicle: Klucel (hydroxypropylcellulose) (HPC) 101 % of control

CCN(CC)C(=O)c1cc(=O)c(C)c2oc3c(C)c(O)c(N)c(C(=O)N(CC)CC)c3nc1-2
inactive: dose: 60.0 mg/kg/injection, schedule: Q01DX005 (ip), vehicle: Klucel (hydroxypropylcellulose) (HPC) 92 % of control | dose: 120.0 mg/kg/injection, schedule: Q01DX005 (ip), vehicle: Klucel (hydroxypropylcellulose) (HPC) 87 % of control | dose: 240.0 mg/kg/injection, schedule: Q01DX005 (ip), vehicle: Klucel (hydroxypropylcellulose) (HPC) 86 % of control

CCOC(=O)C(C)(C)c1nc[nH]c1[N+](=O)[O-]
inactive: dose: 12.5 mg/kg/injection, schedule: Q04DX003 (ip), vehicle: saline with Tween-80 100 % of control | dose: 25.0 mg/kg/injection, schedule: Q04DX003 (ip), vehicle: saline with Tween-80 104 % of control | dose: 50.0 mg/kg/injection, schedule: Q04DX003 (ip), vehicle: saline with Tween-80 100 % of control | dose: 200.0 mg/kg/injection, schedule: Q04DX003 (ip), vehicle: saline with Tween-80 98 % of control | dose: 400.0 mg/kg/injection, schedule: Q04DX003 (ip), vehicle: saline with Tween-80 101 % of control

COc1cc(C2NC(C(=O)O)CS2)cc(OC)c1OC (stereo unspecified)
inactive: dose: 50.0 mg/kg/injection, schedule: Q01DX009 (ip), vehicle: suspension in saline 94 % of control | dose: 100.0 mg/kg/injection, schedule: Q01DX009 (ip), vehicle: suspension in saline 97 % of control | dose: 200.0 mg/kg/injection, schedule: Q01DX009 (ip), vehicle: suspension in saline 96 % of control

Cc1ccc2c(=O)ccn(Cc3ccccc3)c2n1
inactive: dose: 100.0 mg/kg/injection, schedule: Q01DX001 (ip), vehicle: saline 101 % of control | dose: 200.0 mg/kg/injection, schedule: Q01DX001 (ip), vehicle: saline 103 % of control | dose: 400.0 mg/kg/injection, schedule: Q01DX001 (ip), vehicle: saline 92 % of control

Cc1c2oc3c(C)ccc(C(=O)NCCN4CCCCC4)c3nc-2c(C(=O)NCCN2CCCCC2)c(N)c1=O
inactive: dose: 12.5 mg/kg/injection, schedule: Q01DX009 (ip), vehicle: Klucel (hydroxypropylcellulose) (HPC) 98 % of control | [1] 117 % of control | [2] 115 % of control | [3] 110 % of control

c1csc(-c2[nH]nc3c2CCc2ccccc2-3)c1
inactive: dose: 3.75 mg/kg/injection, schedule: Q01DX005 (ip), vehicle: Klucel (hydroxypropylcellulose) (HPC) 122 % of control | dose: 7.5 mg/kg/injection, schedule: Q01DX005 (ip), vehicle: Klucel (hydroxypropylcellulose) (HPC) 114 % of control | dose: 15.0 mg/kg/injection, schedule: Q01DX005 (ip), vehicle: Klucel (hydroxypropylcellulose) (HPC) 114 % of control

c1cc[c]([GeH][c]2ccccc2)cc1.c1cc[c]([GeH][c]2ccccc2)cc1
inactive: [7] 101 % of control | dose: 25.0 mg/kg/injection, schedule: Q01DX005 (ip), vehicle: Klucel (hydroxypropylcellulose) (HPC) 97 % of control | [8] 100 % of control and 101 % of control | [9] 99 % of control | [10] 100 % of control

C/C(=N\NC(N)=O)c1cccc(/C(C)=N/NC(N)=O)n1
inactive: dose: 25.0 mg/kg/injection, schedule: Q01DX009 (ip), vehicle: saline with Tween-80 116 % of control | dose: 50.0 mg/kg/injection, schedule: Q01DX009 (ip), vehicle: saline with Tween-80 109 % of control and 118 % of control

C=C1CC/C=C(\C)C(=O)C(O)C2C1CC2(C)C (stereo unspecified)
inactive: dose: 0.37 mg/kg/injection, schedule: Q01DX009 (ip), vehicle: saline + alcohol 104 % of control | dose: 0.75 mg/kg/injection, schedule: Q01DX009 (ip), vehicle: saline + alcohol 104 % of control | dose: 1.5 mg/kg/injection, schedule: Q01DX009 (ip), vehicle: saline + alcohol 106 % of control | dose: 3.0 mg/kg/injection, schedule: Q01DX009 (ip), vehicle: saline + alcohol 105 % of control | dose: 6.0 mg/kg/injection, schedule: Q01DX009 (ip), vehicle: saline + alcohol 88 % of control

CC(C)(C)c1cc(C(C)(C)C)c2oc(C(=O)O)cc(=O)c2c1
inactive: dose: 50.0 mg/kg/injection, schedule: Q01DX009 (ip), vehicle: saline 95 % of control | dose: 100.0 mg/kg/injection, schedule: Q01DX009 (ip), vehicle: saline 97 % of control

C[N+]1([O-])CC[N+](C)([O-])CC1 (stereo unspecified)
inactive: dose: 60.0 mg/kg/injection, schedule: Q01DX005 (ip), vehicle: saline 103 % of control | dose: 120.0 mg/kg/injection, schedule: Q01DX005 (ip), vehicle: saline 96 % of control | dose: 240.0 mg/kg/injection, schedule: Q01DX005 (ip), vehicle: saline 100 % of control

ClC(Cl)=C(Cl)Sc1ccccc1
inactive: [4] 105 % of control | [5] 105 % of control | [6] 107 % of control

Cc1ccccc1NCN1C(=O)S/C(=C2\C(=O)N(C)c3ccc(Br)cc32)C1=O
inactive: [8] 95 % of control | [9] 92 % of control | [10] 90 % of control

N#Cc1ncnc2nc[nH]c12
inactive: [8] 101 % of control | [9] 107 % of control

CC12CC3CC(C)(C1)CC(SCCN)(C3)C2
inactive: dose: 60.0 mg/kg/injection, schedule: Q01DX005 (ip), vehicle: saline with Tween-80 105 % of control | dose: 120.0 mg/kg/injection, schedule: Q01DX005 (ip), vehicle: saline with Tween-80 100 % of control

CN=C(c1ccc(NC(=O)c2ccc(C(=O)Nc3ccc(C(=NC)N4CCOCC4)cc3)cc2)cc1)N1CCOCC1
inactive: dose: 6.25 mg/kg/injection, schedule: Q01DX005 (ip), vehicle: Klucel (hydroxypropylcellulose) (HPC) 105 % of control | [7] 101 % of control

O=C1CCC(c2nnc(COc3ccc(Cl)cc3)o2)N1Cc1ccccc1 (stereo unspecified)
inactive: dose: 100.0 mg/kg/injection, schedule: Q01DX001 (ip), vehicle: saline with Tween-80 99 % of control | dose: 200.0 mg/kg/injection, schedule: Q01DX001 (ip), vehicle: saline with Tween-80 102 % of control | dose: 400.0 mg/kg/injection, schedule: Q01DX001 (ip), vehicle: saline with Tween-80 98 % of control

O=C(CC(=O)c1ccccc1)c1ccccc1.[Tl]
inactive: dose: 6.25 mg/kg/injection, schedule: Q01DX009 (ip), vehicle: saline with Tween-80 100 % of control | dose: 12.5 mg/kg/injection, schedule: Q01DX009 (ip), vehicle: saline with Tween-80 98 % of control
